| melting point [°C] | SMILES |
| --- | --- |
| 131 to 133 | CCCCCCCOc1ccc(C(=O)Nc2ccccc2O)cc1 |
| 202 | Cc1nc2nc(NCCN3CCC(Nc4nc5ccccc5n4Cc4ccc(F)cc4)CC3)ccc2[nH]1 |
| 81 | CCCCCCc1cc2c(cc1OCCCC(=O)O)C(=O)CCC2 |
| 101 to 123 | CCc1nc2cc(NS(C)(=O)=O)c(Cl)cc2n1-c1ccc(CCNC(=O)NS(=O)(=O)c2ccc(C)cc2)cc1 |
| 65 to 67 | N#Cc1ccc(-c2c[nH]nc2C(F)(F)F)cc1SCC(F)(F)F |
| 220 to 224 | COc1cc(C2CCN(CCO)CC2)ccc1Nc1ncc2ccc(-c3cccc(S(=O)(=O)NC(C)(C)C)c3)n2n1 |
| 210 to 212 | Cc1ccc(N2CCN(C)CC2)c2c1CC[C@@H](NC(=O)c1ccc(Cl)cc1)C2 |
| 109 to 113 | CC12CCC3C(CC=C4CCCCC43C)C1CC=C2Br (stereo not given) |
| 134 to 136 | O=C1CCC(N2Cc3c(OCc4ccc(CN5CCSCC5)cc4)cccc3C2=O)C(=O)N1 (stereo not given) |
| 232 | CC1Cc2c([nH]c3ccccc23)-c2nc3c(c(=O)n21)CCCC3 (stereo not given) |
| 150 to 152 | O=S(=O)(NCCCCOc1ccc(-n2ccnc2)cc1)c1ccc(I)cc1 |
| 90 to 92 | O=S(=O)(Cl)c1ccc(Cl)c(CBr)c1Cl |
| 152 to 154 | Nc1nc(NCc2cccc(I)c2)c2ncn(C3OC(CO)C(O)C3O)c2n1 (stereo not given) |
| 230 | CCOC(=O)C1=CC(C2CC2)c2nc3cc(F)c(F)cc3nc2C1=O (stereo not given) |
| 163 to 165 | N#Cc1ccc(NC(=S)Nc2ncccc2OCc2ccccc2)cc1 |
| 73 to 74 | CCc1nc(-c2ccnnc2)no1 |
| 169 to 171 | CC(O)C#CC1CCC2C3CCC4CC(O)CCC4(C)C3CCC12C (stereo not given) |
| 105 to 106 | CCOC(=O)c1cccn2c(C(=O)OCC)c(Cl)nc12 |
| 104 to 106 | CC(O)(CO)c1cccc(OCc2ccc3ccccc3c2)c1 (single isomer, unassigned; (-)) |
| 148 to 151 | O=c1cc2c(nn1-c1ccc(Cl)cc1)-c1cc(Br)sc1SCC2 |
| 270 to 271 | CCc1c(C)[nH]c2cc(OCCN3CCOCC3)c(Cl)cc2c1=O |
| 131 to 133 | O=C(O)COc1ccc(SCc2cc(-c3ccc(Cl)cc3)on2)c2c1CCCO2 |
| 75 to 77 | CCCCOC1OC(CO)C(O)C(O)(N(CC2CCCCC2)C(=O)N(CCCl)N=O)C1O (stereo not given) |
| 131 to 132 | Cc1nc(C)c(C(C)(O)c2ccccc2)s1 (stereo not given) |
| 165 to 167 | CC(C(=O)OC1(C)CCCCC1)c1ccc2nc(N)sc2c1 (stereo not given) |

| melting point [°C] | SMILES |
| --- | --- |
| 186 to 189 | O=C(NC=C(c1ccccc1)c1ccccc1)c1sc2ccc(F)cc2c1O |
| > 300 | COc1c(-c2ccc3cc(NS(C)(=O)=O)ccc3c2)cc(N2CCCNC2=O)cc1C(C)(C)C |
| 87 to 92 | CCN=C(NC(=O)OC(C)(C)C)Nc1cc(C(C)c2ccc(-c3ccccc3)c(F)c2)no1 (stereo not given) |
| 110 | COc1ccc(Nc2ccc(CO)cc2)cc1 |
| 76.5 to 77.5 | COC(=O)c1cccc2c1CCC2C#N (stereo not given) |
| 256 to 258 | COc1cc2c(OC)c3c(c(-c4ccc5c(c4)OCO5)c2cc1OC)C(=O)OC3 |
| 97 to 98 | CC1Cc2cccc(S(=O)(=O)NC(C)(C)C)c2S1 (stereo not given) |
| 177 to 178 | COc1cc(-c2ccc3cc4c(cc3c2)C(C)(C)CCC4(C)C)ccc1C(=O)O |
| 160 to 170 | COc1ccc2[nH]cc(CC3=CCCN(CCCC(O)c4ccc(F)cc4)C3)c2c1 (stereo not given) |
| 64.4 | CON=C(C(C)=O)C(=O)OC |
| 172 to 174 | CCN(CC)CCNC(=O)c1ccc(-c2n[nH]c3c2Cc2ccccc2-3)cc1 |
| 69 to 70 | ClCN1C=C(Cl)C(Cl)=CN1 |
| 271 to 273 | COc1ccc(C(=O)Nc2nc(=O)c3cnn4c3n2CC=C4c2cccc(C(F)(F)F)c2)cc1 |
| 78 to 80 | CNC(=C[N+](=O)[O-])NCCCCCCCCCCCCNC(C[N+](=O)[O-])NCCSCc1ccc(CN(C)C)o1 (stereo not given) |
| 83 to 84 | CC(C)C(CO)CS(N)(=O)=O (stereo not given) |
| > 230 | Nc1nc2ccc3ccc(CNc4ccc([N+](=O)[O-])cc4)cc3c2c(=O)[nH]1 |
| 187 to 189 | COc1ccccc1NC(=O)NCc1cccc2c1CN(C1CCC(=O)NC1=O)C2=O (stereo not given) |
| 212 to 213 | COC(=O)CCc1ccc(-n2c(C)cn(-c3ccc(C(=N)NC(=O)OC)cc3)c2=O)cc1 |
| > 315 | CCCc1c2nc(C(=O)Nc3ccccc3)cc(Cl)c2cc2c(=O)cc(C(=O)Nc3ccccc3)oc12 |
| 157 to 159 | O=C(O)c1ccc(NCCCCCCOc2ccc3ccccc3c2)cc1 |
| 137 to 138 | O=c1nc(N(Cc2ccccc2)c2ccccc2)sc2ncccc12 |
| 146 to 148 | CC(CCCn1c(C)nc2c(N)nc3ccccc3c21)=NOCc1ccccc1 |
| 250 | O=C1CC(c2cccc(-n3ccnc3)c2)=Nc2cc(O)c(-c3ccc(F)cc3)cc2N1 |
| 191 to 192 | Cn1cnc(S(=O)(=O)NC(CN2CCOCC2)CN2CCOCC2)c1 |
| 83 to 84 | CN(Cc1ncc(C(F)(F)F)cc1Cl)C(=O)c1c(Cl)cccc1Cl |

| melting point [°C] | SMILES |
| --- | --- |
| 175 to 177 | Cc1cc(=O)[nH]c(=O)n1C1OC(CO)C(O)C1O (stereo not given) |
| 161 to 163 | O=C1CCC(N2Cc3c(OCc4ccc(CN5CCC(c6cccnc6)CC5)cc4)cccc3C2=O)C(=O)N1 (stereo not given) |
| 94 to 96 | COC(=O)CC[C@H](NC(=O)c1ccc(I)cc1F)C(=O)OC |
| 158 to 160 | O=C(O)Cc1ccc(-c2ccc(C(F)(F)F)cc2)cc1 |
| 80 to 90 | C=CCOc1ccc(-c2cccc(C#N)c2)cc1 |
| 106 | Cc1ccc(Oc2ccc(Oc3ccc(C)c(C)c3)cc2)cc1C |
| 138 to 140 | COc1cccc(-c2cccc(C(N)=O)c2)c1 |
| 154 to 155 | CC(=O)OC[C@H]1O[C@@H]2[C@@H](Sc3ccccc3N2C(=O)c2ccccc2)[C@@H](OC(C)=O)[C@@H]1OC(C)=O |
| 106 to 107 | Cc1c(-c2ccccc2)cccc1-c1ccc2ccccc2c1 |
| 204 to 206 | Cc1oc(-c2ccccc2)nc1CCOc1ccc(C[C@H](NC(=O)C=Cc2cccc(Cl)c2)C(=O)O)cc1 |
| 131 to 133 | O=Cc1cncn1-c1ccc(F)cc1 |
| 320 to 323 | Cn1nc(-c2cnc3[nH]cc(C(=O)NC4CCCOC4)c3n2)c2ccc(Cl)cc21 (stereo not given) |
| 173 to 175 | CCn1c(=O)n(O)c(=O)c2cc(F)c(N3CCCCC3)cc21 |
| 251 to 252 | CC1CC(=O)Nc2nc(Br)c3ncccc3c21 (stereo not given) |
| 104 to 105 | CC1=C(c2cc(C)no2)C(=O)CCC1 |
| 119 to 120 | COc1cc(OC)cc(-c2ncoc2-c2ccc(OC(F)(F)F)c(N)c2)c1 |
| 60 to 61 | CCOC(=O)/C(=C\Nc1cccc(OC)c1)c1ccc(OC)cc1 |
| 163 | O=[N+]([O-])c1cccc(C(O)CN2CCNC2=S)c1 (stereo not given) |
| 116 to 120 | CCCN(CCC)CCOc1ccc(NC(=O)c2c(OC)cccc2OC)cc1 |
| 88 to 90 | CCOCC1OC(n2c(Cl)nc3cc(Cl)c(Cl)cc32)C(O)C1O (stereo not given) |
| 130 to 140 | c1c(N2CCNCC2)nc(N2CCC3(CC2)OCCO3)nc1N1CCC2(CC1)OCCO2 |
| 89 to 90 | COC(=O)[C@@H]1C[C@H](OC(=O)c2ccccc2)CN1C(=O)OC(C)(C)C |
| 214 to 216 | COc1ccc(-c2c(Cl)c(CN3C(=O)CCC3=O)nc3sc4c(c23)CC(C)(C)C(=O)C4(C)C)cc1 |
| 188 to 189 | CCCCC(C(=O)Nc1c(C(C)C)cccc1C(C)C)C1c2ccccc2Oc2ccccc21 (stereo not given) |
| 121 to 123 | CC(C)=NNc1ccc(OCC(C)NCC(O)COc2ccccc2C#N)nn1 (stereo not given) |

| melting point [°C] | SMILES |
| --- | --- |
| 202 to 204 | CC(=O)Nc1nc(-c2ccccc2)c(-c2ccc(=O)n(C(C)C)n2)s1 |
| 208 to 210 | CNC(=O)c1ccc(=O)n(CCNC(=O)c2cccnc2)c1 |
| 271 to 272 | O=c1[nH]sc2cc(Cl)ccc12 |
| 158 to 160 | Oc1ccc(CCCn2ccnc2)cc1 |
| 50 to 51 | COC(=O)COc1ccc(NC(=O)c2cc(F)cc(N3CCC(C)CC3)c2)c2ccccc12 |
| 75 to 78 | CN(C)CCNC(=O)c1ccc(-c2cccc(CSCCOc3ccccc3)c2)cc1 |
| 190 | O=Cc1c[nH]c2cc(F)c(OCc3ccccc3)cc12 |
| > 300 | CCn1c(=O)c2[nH]c(/C=C/c3ccc(N(C)C)cc3)nc2n(CC)c1=O |
| 144 | OCc1ccc(Cn2c(CC3CCN(Cc4ccccc4)CC3)nc3ccccc32)o1 |
| 152 to 155 | Clc1cccc(N2CCC3CCc4cnccc4C3=N2)c1 (stereo not given) |
| 160 to 161 | N#CCC(O)(c1ccc(Cl)cc1)c1ccc(-c2ccc(Br)cc2)cc1 (stereo not given) |
| 123 to 124 | CCCc1nn(-c2ccc(C(F)(F)F)cn2)cc1CCCOc1nn(-c2ccccc2)cc1CC(=O)O |
| 201 to 202 | CSc1nc(N)nc(Cl)c1-c1ccc(Cl)cc1Cl |
| 184 to 186 | NNC(=O)Nc1ccc(O)cc1 |
| 85 to 87 | C=C(CCC)C(=O)c1ccc(OCCCC(=O)O)c(Cl)c1Cl |
| 238 to 241 | CC(C)(CO)NS(=O)(=O)c1cc(NC(=O)c2cnn3c(C4CC4)cc(-c4ccc(Cl)cc4)nc23)c(Cl)s1 |
| 85 to 87 | CCNC(=O)N1C(c2ccccc2C(=O)OCC)=NC(=O)C1(C)C(C)C (stereo not given) |
| 104 to 106 | O=[N+]([O-])c1ccc(S(=O)C2CC2)cc1 (racemic) |
| 154 | CCOC(=O)C(=NOC(CC)C(=O)O)c1csc(NC(c2ccccc2)(c2ccccc2)c2ccccc2)n1 (stereo not given) |
| 120 to 123 | C[C@@H](O)[C@H](CN)C(=O)O |
| 76 to 79 | CCCCCCCCCCCCCCCCCCOc1cc(OCc2ccc3ccccc3n2)cc(N(CC(=O)OC)CC(=O)OC)c1 |
| 233 to 235 | O=C(NCc1ccncc1)c1[nH]c2ccc(Cl)cc2c1S(=O)c1ccccc1 (stereo not given) |

| SMILES | melting point [°C] |
| --- | --- |
| CCOc1ccc2c(c1)c(C[C@H](C)N)c1n2CCC1 | 101 to 102 |
| Cc1ccc2c(CCN)c[nH]c2c1C | 171 to 173 |
| N#CC(CF)(CF)CF | 70 to 75 |

From a melting point compilation (Tetko et al.; mined from patent text by program, amines drawn as free bases though some values may be those of a salt)
